{"source": "patent US20260327260A1", "about": "“PHOSPHONOALANINE OLIGOPEPTIDES AND METHODS OF MAKING AND USE THEREOF” (priority 2023, published 2026)", "origin": "cited, not measured here", "test_system": "threonine synthase", "details": "role: inhibitor; cited from earlier work"}
{"smiles": "N[C@@H](/C=C\\CP(=O)(O)O)C(=O)O", "note": "[(Z)-L-2-amino-5-phosphono-3-pentenoic acid]", "values": [{"measurement": "threonine synthase inhibition", "result": "threonine synthase inhibitor"}]}
